# Test results taken from patent US11814445B2, “Cyclic polypeptides for PCSK9 inhibition” (Ra Pharmaceuticals, Inc., priority 2018, dated 2023).
# Numbered stars: 1 amine (or outer) side, 2 acyl side, 3 side chain; on linkers, the order of the positions; unused ones are H or OH. Bridge positions count the residues as written; N and C are the ends. Square brackets hold non-standard residues; d marks the D form. Peptide text beside a SMILES is read from it. ξ: configuration not given here. X6 = O=C([C@H](Cc1cccc(OCC=[*:3])c1)N[*:1])[*:2]; Phe(4-CF3) = N[C@@H](Cc1ccc(C(F)(F)F)cc1)C(=O)O; Phe(4-COOH) = N[C@@H](Cc1ccc(C(=O)O)cc1)C(=O)O; Trp(5-F) = N[C@@H](Cc1c[nH]c2ccc(F)cc12)C(=O)O; X8 = O=C(CCCCCSCc1cccc(CSCCN[*:1])c1)[*:2]; Bip = N[C@@H](Cc1ccc(-c2ccccc2)cc1)C(=O)O; Phe(4-Cl) = N[C@@H](Cc1ccc(Cl)cc1)C(=O)O; X1 = O=C(CCSCc1cccc(CSCCN[*:1])c1)[*:2]; 1Nal = N[C@@H](Cc1cccc2ccccc12)C(=O)O; mXylylene = c1cc(C[*:1])cc(C[*:2])c1; NMeY = CN[C@@H](Cc1ccc(O)cc1)C(=O)O; Igl = N[C@H](C(=O)O)C1Cc2ccccc2C1; NMeF = CN[C@@H](Cc1ccccc1)C(=O)O; X7 = O=C(CN(CC=[*:3])[*:1])[*:2]; 3Pal = N[C@@H](Cc1cccnc1)C(=O)O; Tic = O=C(O)[C@@H]1Cc2ccccc2CN1; αMeP = C[C@@]1(C(=O)O)CCCN1; ΔPro = O=C(O)[C@@H]1C=CCN1; hSer = N[C@@H](CCO)C(=O)O; Aib = CC(C)(N)C(=O)O; Ahx = NCCCCCC(=O)O; ξP = O=C(O)C1CCCN1; Mpa = O=C(O)CCS
# How the values were obtained:
# [1] = target: human PCSK9 / human LDLR EGFa domain (Homo sapiens, UniProt Q8NBP7); assay: TR-FRET assay of inhibition of the PCSK9-LDLR protein-protein interaction; type: binding; conditions: 20 nM human PCSK9, 20 nM human LDLR EGFa domain, 2 hours room temperature
# Experimental: A time-resolved fluorescence resonance energy (TR-FRET) assay was used to measure inhibition of the PCSK9-LDLR protein-protein interaction. Briefly, 20 nM avitag-biotinylated human PCSK9 was incubated with 20 nM his-tagged human LDLR EGFa domain in the presence of 5 nM LANCE Ulight Streptavidin (Perkin Elmer) and 5 nM europium-Anti-6×His (Perkin Elmer) for 2 hours covered at room temperature in buffer containing 50 mM HEPES, 150 mM NaCl, 5 mM CaCl2), 0.01% BSA and 0.01% Surfactant P20. Compounds were tested in dose-response and concentrations giving half-maximal inhibition calculated using a 4-parameter fit equation.
# PCSK9 = target: T1, PCSK9 (Homo sapiens, UniProt Q8NBP7); assay: PCSK9 Alexa FRET Standard assay (displacement of AlexaFluor647 tagged cyclic peptide Reagent A); type: binding; conditions: 0.5 nM PCSK9, 20 nM AF cyclic peptide Reagent A
# T1 construct: biotin (biotinylated)
# Experimental: A solution containing 1 nM biotinylated PCSK9+2.5 nM Lance Streptavidin Europium (Strep-Eu) was made in 50 mM HEPES pH 7.4, 0.15 M NaCl, 5 mM CaCl2), 0.01% BSA, and 0.01% Surfactant P20. A separate solution containing 40 nM of the AlexaFluor tagged cyclic peptide was made in the same buffer system. An Echo was used to transfer 0.750 ul of compound to an assay plate followed by the addition of 15 ul of PCSK9+Stept-Eu and 15 ul of AF peptide. The final assay volume was 30.750 ul containing 0.5 nM PCSK9, 1.25 nM Strep-Eu, and 20 nM AF cyclic peptide. The reaction was incubated at room temperature for at least two hours prior to fluorescence measurements using an Envision Multilabel Reader. IC50 values were determined by fitting data to a sigmoidal dose-response curve using nonlinear regression. Ki was then calculated from the IC50 and the KD of AF cyclic peptide. Counts (B-counts) of the europium-labeled PCSK9 were followed to observe if compounds were […]. A fall off of the B-counts likely indicated a false positive of inhibition. Data from this procedure was reported as “A=‘numerical value’ (nanomolar)”
# T1 sequence (Q8NBP7 153-692): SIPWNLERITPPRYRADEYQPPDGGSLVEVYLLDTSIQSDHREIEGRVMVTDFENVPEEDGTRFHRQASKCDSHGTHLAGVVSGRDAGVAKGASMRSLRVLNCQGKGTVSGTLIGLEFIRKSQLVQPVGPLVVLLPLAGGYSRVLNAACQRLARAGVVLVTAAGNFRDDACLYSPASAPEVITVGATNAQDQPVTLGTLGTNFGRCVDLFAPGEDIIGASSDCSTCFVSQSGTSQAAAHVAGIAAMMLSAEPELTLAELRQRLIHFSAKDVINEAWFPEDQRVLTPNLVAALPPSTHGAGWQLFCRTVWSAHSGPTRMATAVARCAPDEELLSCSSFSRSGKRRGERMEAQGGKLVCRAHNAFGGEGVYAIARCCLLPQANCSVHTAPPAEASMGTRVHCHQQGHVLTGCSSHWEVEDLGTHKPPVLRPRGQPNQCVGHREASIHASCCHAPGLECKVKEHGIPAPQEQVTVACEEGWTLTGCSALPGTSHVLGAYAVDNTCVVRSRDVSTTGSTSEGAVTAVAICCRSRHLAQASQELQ
# human PCSK9 / human LDLR EGFa domain, sequence (Q8NBP7 153-692): as above
Compound,IC50 [1],IC50 (PCSK9)
COc1ccc(C[C@@H]2NC(=O)[C@H]([C@@H](C)O)NC(=O)[C@@H]3CCCN3C(=O)[C@H]3Cc4cn(c5ccc(F)cc45)Cc4cn(nn4)-c4cc(cc(c4)CSCCC(=O)N[C@@H](C)C(=O)N[C@H](C)C(=O)N[C@@H](Cc4c[nH]c5ccc(F)cc45)C(=O)N3)CSCCNC(=O)[C@]3(C)CCCN3C2=O)cc1 [Compound 129],1000 to 12100 nM,1000 to 12100 nM
C[C@@H]1NC(=O)[C@@H]2CCCN2C(=O)[C@H](Cc2ccc(C(F)(F)F)cc2)NC(=O)[C@H](Cc2c[nH]c3ccc(F)cc23)NC(=O)CNC(=O)[C@H](CCCCN)NC(=O)CCSCc2cccc(c2)CSC[C@@H](C(N)=O)NC(=O)[C@@H]2CCCN2C(=O)[C@H](Cc2ccc(O)cc2)NC1=O [Compound 007] ([Mpa]KG[Trp(5-F)][Phe(4-CF3)]PAYPC-NH2; linker 1-10 via mXylylene),1000 to 12100 nM,–
C[C@@H]1NC(=O)[C@@H]2CCCN2C(=O)[C@H](Cc2cccnc2)NC(=O)[C@H](Cc2c[nH]c3ccc(F)cc23)NC(=O)CNC(=O)[C@H](CCCCN)NC(=O)CCSCc2cccc(c2)CSC[C@@H](C(N)=O)NC(=O)[C@@H]2CCCN2C(=O)[C@H](Cc2ccc(O)cc2)NC1=O [Compound 020] ([Mpa]KG[Trp(5-F)][3Pal]PAYPC-NH2; linker 1-10 via mXylylene),21000 to 50000 nM,–
C[C@@H]1NC(=O)CCSCc2cccc(c2)CSCCNC(=O)[C@@H]2CCCN2C(=O)[C@H](Cc2ccccc2)N(C)C(=O)[C@H](C)NC(=O)[C@@H]2CCCN2C(=O)[C@H](Cc2c[nH]c3ccc(F)cc23)NC(=O)[C@H](Cc2cccc3ccccc23)NC(=O)[C@@H](C)NC1=O [Compound 067] (cyclo([1Nal][Trp(5-F)]PA[NMeF]P[X1]A[dA])),1000 to 12100 nM,–
C[C@@H]1NC(=O)[C@@H]2CCCN2C(=O)[C@H](Cc2c[nH]c3ccc(F)cc23)NC(=O)[C@H](Cc2c[nH]c3ccc(F)cc23)NC(=O)[C@@H](C)NC(=O)[C@H](CCCCN)NC(=O)CCSCc2cccc(c2)CSCCNC(=O)[C@]2(C)CCCN2C(=O)[C@H](Cc2ccc(O)cc2)NC1=O [Compound 003] (cyclo(AY[αMeP][X1]K[dA][Trp(5-F)][Trp(5-F)]P)),1000 to 12100 nM,–
C[C@@H]1NC(=O)CCSCc2cccc(c2)CSC[C@@H](C(N)=O)NC(=O)[C@@H]2CCCN2C(=O)[C@H](Cc2ccc(Cl)cc2)NC(=O)[C@H](C)NC(=O)[C@@H]2CCCN2C(=O)[C@H](Cc2c[nH]c3ccc(F)cc23)NC(=O)[C@H](Cc2c[nH]c3ccc(F)cc23)NC(=O)[C@@H](C)NC1=O [Compound 083] ([Mpa]A[dA][Trp(5-F)][Trp(5-F)]PA[Phe(4-Cl)]PC-NH2; linker 1-10 via mXylylene),21000 to 50000 nM,–
C[C@@H]1NC(=O)[C@@H]2CCCN2C(=O)[C@H](Cc2c[nH]c3ccc(F)cc23)NC(=O)[C@H](Cc2c[nH]c3ccc(F)cc23)NC(=O)[C@@H](C)NC(=O)[C@@H]2CCCN2C(=O)CCSCc2cccc(c2)CSCCNC(=O)[C@@H]2CCCN2C(=O)[C@H](Cc2cccc3ccccc23)NC1=O [Compound 054] (cyclo([1Nal]P[X1]P[dA][Trp(5-F)][Trp(5-F)]PA)),100 to 1000 nM,–
CN1C(=O)[C@H](Cc2cnc[nH]2)NC(=O)C(C)(C)NC(=O)[C@H](Cc2c[nH]c3ccc(F)cc23)NC(=O)[C@H](Cc2c[nH]c3ccc(F)cc23)NC(=O)CNC(=O)[C@H](CCCCN)NC(=O)CCSCc2cccc(c2)CSCCNC(=O)[C@]2(C)CCCN2C(=O)[C@@H]1Cc1ccc(O)cc1 [Compound 111] (cyclo([Aib]H[NMeY][αMeP][X1]KG[Trp(5-F)][Trp(5-F)])),1000 to 12100 nM,–
C[C@@H]1NC(=O)[C@@H]2C=CCN2C(=O)[C@H](Cc2c[nH]c3ccc(F)cc23)NC(=O)[C@H](Cc2c[nH]c3ccc(F)cc23)NC(=O)[C@@H](C)NC(=O)[C@H](CCCCN)NC(=O)CCSCc2cccc(c2)CSC[C@@H](C(N)=O)NC(=O)[C@@H]2CCCN2C(=O)[C@H](Cc2ccc(O)cc2)NC1=O [Compound 038] ([Mpa]K[dA][Trp(5-F)][Trp(5-F)][ΔPro]AYPC-NH2; linker 1-10 via mXylylene),100 to 1000 nM,–

# Second part, the molecule after the results:
IC50 [1],IC50 (PCSK9),Compound
100 to 1000 nM,1 to 100 nM,NCCCC[C@@H]1NC(=O)CCSCc2cccc(c2)CSC[C@@H](C(N)=O)NC(=O)[C@@H]2CCCN2C(=O)[C@H](Cc2ccc(O)cc2)NC(=O)[C@H](Cc2cnc[nH]2)NC(=O)[C@H](CCO)NC(=O)[C@H](Cc2c[nH]c3ccc(F)cc23)NC(=O)[C@H](Cc2c[nH]c3ccc(F)cc23)NC(=O)CNC1=O [Compound 117] ([Mpa]KG[Trp(5-F)][Trp(5-F)][hSer]HYPC-NH2; linker 1-10 via mXylylene)
100 to 1000 nM,1 to 100 nM,COc1ccc(C[C@@H]2NC(=O)[C@H](C)NC(=O)CN3C/C=C\COc4cccc(c4)C[C@H](NC(=O)CNC(=O)CCCCCNC(=O)c4ccc(cc4)C[C@@H](C(N)=O)NC(=O)[C@]4(C)CCCN4C2=O)C(=O)N[C@@H](Cc2c[nH]c4ccc(F)cc24)C3=O)cc1 [Compound 121] ([Ahx]G[X6][Trp(5-F)][X7]AY(Me)[αMeP][Phe(4-COOH)]-NH2; staple (Z) 3-5; lactam N-9)
100 to 1000 nM,100 to 1000 nM,COc1ccc(C[C@@H]2NC(=O)[C@H]([C@@H](C)O)NC(=O)CN3CCCCCOc4cccc(c4)C[C@@H](NC(=O)[C@@H](C)NC(=O)[C@H](C)NC(=O)CCSCc4cccc(c4)CSCCNC(=O)[C@]4(C)CCCN4C2=O)C(=O)N[C@@H](Cc2c[nH]c4ccc(F)cc24)C3=O)cc1 [Compound 125]
100 to 1000 nM,1 to 100 nM,COc1ccc(C[C@@H]2NC(=O)[C@H](C)NC(=O)[C@@H]3CCCN3C(=O)[C@@H]3Cc4cn(c5ccc(F)cc45)Cc4cn(nn4)-c4c(cccc4CSCCC(=O)N[C@H](C)C(=O)NCC(=O)N[C@@H](Cc4c[nH]c5ccc(F)cc45)C(=O)N3)CSCCNC(=O)[C@]3(C)CCCN3C2=O)cc1 [Compound 128]
1 to 100 nM,1 to 100 nM,COc1ccc(C[C@@H]2NC(=O)[C@H]([C@@H](C)O)NC(=O)CN3CCCCOc4cccc(c4)C[C@H](NC(=O)[C@@H](C)NC(=O)[C@H](C)NC(=O)CCSCc4cccc(c4)CSCCNC(=O)[C@]4(C)CCCN4C2=O)C(=O)N[C@H](Cc2c[nH]c4ccc(F)cc24)C3=O)cc1 [Compound 126]
100 to 1000 nM,1000 to 12100 nM,C[C@@H]1NC(=O)[C@@H]2CCCN2C(=O)[C@H](Cc2ccc(-c3ccccc3)cc2)NC(=O)[C@H](Cc2c[nH]c3ccc(F)cc23)NC(=O)CNC(=O)[C@H](CCCCN)NC(=O)CCSCc2cccc(c2)CSC[C@@H](C(N)=O)NC(=O)[C@@H]2CCCN2C(=O)[C@H](Cc2ccc(O)cc2)NC1=O [Compound 017] ([Mpa]KG[Trp(5-F)][Bip]PAYPC-NH2; linker 1-10 via mXylylene)
100 to 1000 nM,–,C[C@@H]1NC(=O)[C@@H]2CCCN2C(=O)[C@H](C2Cc3ccccc3C2)NC(=O)[C@H](Cc2c[nH]c3ccc(F)cc23)NC(=O)CNC(=O)[C@H](CCCCN)NC(=O)CCSCc2cccc(c2)CSC[C@@H](C(N)=O)NC(=O)[C@@H]2CCCN2C(=O)[C@H](Cc2ccc(O)cc2)NC1=O [Compound 008] ([Mpa]KG[Trp(5-F)][Igl]PAYPC-NH2; linker 1-10 via mXylylene)
100 to 1000 nM,–,C[C@@H]1NC(=O)[C@@H]2CCCN2C(=O)[C@H](Cc2c[nH]c3ccc(F)cc23)NC(=O)[C@H](Cc2c[nH]c3ccc(F)cc23)NC(=O)CNC(=O)CCCCCSCc2cccc(c2)CSCCNC(=O)C2CCCN2C(=O)[C@H](Cc2ccc(O)cc2)NC1=O (stereo partly drawn) [Compound 098] (cyclo(AY[ξP][X8]G[Trp(5-F)][Trp(5-F)]P))
100 to 1000 nM,–,C[C@@H]1NC(=O)[C@@H]2CCCN2C(=O)[C@H](Cc2c[nH]c3ccc(F)cc23)NC(=O)[C@H](Cc2c[nH]c3ccc(F)cc23)NC(=O)CNC(=O)[C@H](CCCCN)NC(=O)CCSCc2cccc(c2)CSC[C@@H](C(N)=O)NC(=O)[C@@H]2CCCN2C(=O)[C@@H]2CCCN2C1=O [Compound 032] ([Mpa]KG[Trp(5-F)][Trp(5-F)]PAPPC-NH2; linker 1-10 via mXylylene)
100 to 1000 nM,–,C[C@@H]1NC(=O)CCSCc2cccc(c2)CSCCNC(=O)[C@@H]2CCCN2C(=O)[C@H](Cc2ccc(O)cc2)NC(=O)[C@H](C)NC(=O)[C@@H]2Cc3ccccc3CN2C(=O)[C@H](Cc2c[nH]c3ccc(F)cc23)NC(=O)[C@H](Cc2c[nH]c3ccc(F)cc23)NC(=O)[C@@H](C)NC1=O [Compound 091] (cyclo(AYP[X1]A[dA][Trp(5-F)][Trp(5-F)][Tic]))
100 to 1000 nM,–,C[C@@H]1NC(=O)[C@@H]2CCCN2C(=O)[C@H](Cc2c[nH]c3ccc(F)cc23)NC(=O)[C@H](Cc2c[nH]c3ccc(F)cc23)NC(=O)[C@@H](C)NC(=O)C(C)(C)NC(=O)CCSCc2cccc(c2)CSCCNC(=O)[C@@H]2CCCN2C(=O)[C@H](Cc2ccc(O)cc2)NC1=O [Compound 094] (cyclo(AYP[X1][Aib][dA][Trp(5-F)][Trp(5-F)]P))
